Data taken from US20120309763A1, “ANTIFUNGAL COMPOSITION INTENDED TO BE APPLIED TO A PERFORATED NAIL” (priority 2009, published 2012).

How the values were obtained:
[1] = Diffusion of terbinafine HCl through the layers of the nail, Franz cells (Example 10): intermediate layer
Procedure: For each formulation, 2 nails (1 with the dorsal layer and 1 without the dorsal layer) are used per donor. The treatment time is 5 days with a new application of each formula every day. The amount of formula deposited daily on the surface of the nail is 10 μl/cm2.
For each donor, the thickness of the nails is measured. Then, for each donor, the nails are prepared in the following manner:
4 nails without dorsal layer: for the nails from this group, the dorsal face is removed using a miniature sander in order to reach the intermediate layer by removing 40% of the initial thickness of the nail,
The Franz type diffusion cells used are placed in a thermostatically-controlled bath in order to obtain a temperature of 32±1° C. at the surface of the nail. The nails are placed in the diffusion cell with the ventral side towards the receiving compartment, phosphate buffer (pH 7.4±0.1) containing 0.1% of Volpo (Oleth-20). During the experiment, the diffusion cells are placed in a thermostatically-controlled bath in order to obtain a temperature of 32±1° C. This temperature is checked before each withdrawal. […]
The samples, receiving liquids and nail extracts are then analysed by MS/MS. […]
The procedures of the study and also the amounts of terbinafine HCl in the various layers of the nail, dorsal and intermediate, were carried out and analysed according to the same protocol as before.

[2] = Diffusion of terbinafine HCl through the layers of the nail, Franz cells (Example 10): dorsal layer; assay type: in vitro ADME; conditions: 5 days
Source text: This temperature is checked before each withdrawal.

SMILES | factor of better diffusion in the intermediate layer relative to the dorsal layer ([1]; composition with amphoteric agent) | increase of the penetration of terbinafine through the dorsal layer by the presence of the amphoteric agent (×) ([2]; 10% solution with vs without amphoteric agent) | factor of reduction of the amount of terbinafine HCl in the nail by the presence of the amphoteric agent ([2]; Lamisil Spray 1% with vs without amphoteric agent, dorsal layer) | factor of reduction of the amount of terbinafine HCl in the nail by the presence of the amphoteric agent ([1]; Lamisil Spray 1% with vs without amphoteric agent, intermediate layer, 5 days)
CN(C/C=C/C#CC(C)(C)C)Cc1cccc2ccccc12.Cl [terbinafine HCl, terbinafine hydrochloride, reference compound] | 3 |  |  | 
CCCCCCCCCCCC[N+](C)(C)CC(=O)[O-] [amphoteric agent, Lauryl Dimethylaminoacetic Acid Betaine] |  | 3 | 3 | 3
